Reference: patent US10856562B2, “Flavor composition and edible compositions containing same” (MARS, INCORPORATED, priority 2013, dated 2020)
“Also recorded” adds a separate entry of the source. Square brackets hold non-standard residues; d marks the D form. Ends that are not written are not given here. pGlu = O=C1CC[C@@H](C(=O)O)N1

Key:
panelists = assay: Increased salt perception protocol: salt 5 reference (0.35% salt solution) re-tasted after expectoration of test sample; type: in vivo, human; conditions: for Astringent, after-expectoration perception / Bitter, after-expectoration perception / Flinty/Mineral, after-expectoration perception / Metallic, after-expectoration perception / Numbing, after-expectoration perception / Salt, after-expectoration perception (mean salt perception after expectoration) / Sour, after-expectoration perception / Sweet, after-expectoration perception: salt 5 reference re-tasted, mean score; for Level of the aromatics, basic tastes and chemical feeling factors after expectoration with increasing concentration / Salt perception from in-mouth to after expectoration: 0.1 to 40.0/50.0 ppb; for Salt perception after expectoration as the concentration increases: 0.1 to 40.0/50.0 ppb in 0.2% NaCl; for Umami like swelling of lips and tongue, after expectoration: all levels; for Salt perception from in-mouth to after expectoration: all samples
Source text: 1. Each panelist tasted a salt reference (0.35% salt solution) with a reference salt intensity of 5.0 which provided a baseline for each panelist for salt intensity. 2. Each panelist tasted a test sample (0.1 ppb, 0.5 ppb, 1.0 ppb, 10.0 ppb or 40.0 ppb all in 0.2% NaCl solution). Only one sample was tasted per session. 3. Each panelist re-tasted the salt reference (5.0 intensity) and rated it for salt intensity as well as any other basic taste, chemical feeling factor, or aromatic perceived. Thus, any increased salt perception as a result of the test sample would be determined, as well as any other perceptions present. Attribute Perception Protocol • The panelists evaluated each sample using the following procedure • Descriptive Profiles (flavor and chemical feeling factors) of 5 levels of salt enhancing solutions • Individual data was collected for the flavor and chemical feeling factors of the product in-mouth • Increased Salt Perception Protocol • Each panelist tasted salt 5 reference (0.35% salt solution)—to ground themselves on salt intensity of 5.0. • Each panelist tasted the test sample (0.1 ppb, 0.5 ppb, 1.0 ppb, 10.0 ppb or 40.0/50.0 ppb all in 0.2% NaCl solution: only one per session) • Each panelist then re-tasted the salt 5 reference and rated it for salt intensity as well as any other basic taste, chemical feeling factor, or aromatic perceived. This captured any increased salt perception indicated by the test sample as well as any other perceptions present. • Return to Baseline Protocol • After evaluating the sample for salt & other perceptions, panelists re-tasted the salt 5 reference at 1 minute intervals until their perception of the salt 5 saltiness intensity had returned to 5.0. Each panelist recorded their salt intensity at each interval and took qualitative notes on other perceptions seen in aftertaste. Sample Preparation

panel of trained tasters = assay: Saltiness of 25% sodium-reduced food products with peptides, panel of trained tasters; type: in vivo, human
Method: Food product compositions were prepared by admixing flavor composition peptide(s) of the present application with food compositions, wherein the level of sodium (NaCl) in the food product compositions was reduced. The level of sodium was reduced by 25%, 50% or 75% compared to food products compositions that were not admixed with flavor composition peptides. The food product compositions comprising the flavor composition peptides were tasted by a panel of trained tasters and the level of saltiness was compared to the control food products.
The peptides pGlu-Val-Leu (identified as “SE-13”), pGlu-Val-Cys (identified as “UE-30”), pGlu-Val-Val (identified as “SE-17”) and pGlu-Cys-Cys (identified as “FE-37”) were tested in cottage cheese, tortilla chips, ketchup, cream of mushroom soup, alfredo sauce, sausage, mixed nuts, peanuts, soy sauce and chicken broth. The level of sodium in the test food products comprising the peptides was reduced by 25% compared to the control food products.

Substance: [pGlu]-Val [SE-14]
- Astringent, after-expectoration perception (panelists; 0.1 ppb in 0.2% NaCl): 0.0
- Bitter, after-expectoration perception (panelists; 0.1 ppb in 0.2% NaCl): 0.0
- Flinty/Mineral, after-expectoration perception (panelists; 0.1 ppb in 0.2% NaCl): 1.1
- Metallic, after-expectoration perception (panelists; 0.1 ppb in 0.2% NaCl): 0.3
- Numbing, after-expectoration perception (panelists; 0.1 ppb in 0.2% NaCl): 0.0
- Salt, after-expectoration perception (mean salt perception after expectoration) (panelists; 0.1 ppb in 0.2% NaCl): 6.7
- Sour, after-expectoration perception (panelists; 0.1 ppb in 0.2% NaCl): 0.0
- Sweet, after-expectoration perception (panelists; 0.1 ppb in 0.2% NaCl): 0.0
- Level of the aromatics, basic tastes and chemical feeling factors after expectoration with increasing concentration (panelists): do not increase
- Salt perception after expectoration as the concentration increases (panelists): increases slightly; also recorded: slight increase
- Astringent, after-expectoration perception (panelists; 0.5 ppb in 0.2% NaCl): 0.1
- Bitter, after-expectoration perception (panelists; 0.5 ppb in 0.2% NaCl): 0.0
- Flinty/Mineral, after-expectoration perception (panelists; 0.5 ppb in 0.2% NaCl): 1.0
- Metallic, after-expectoration perception (panelists; 0.5 ppb in 0.2% NaCl): 0.1
- Numbing, after-expectoration perception (panelists; 0.5 ppb in 0.2% NaCl): 0.0
- Salt, after-expectoration perception (mean salt perception after expectoration) (panelists; 0.5 ppb in 0.2% NaCl): 7.0
- Sour, after-expectoration perception (panelists; 0.5 ppb in 0.2% NaCl): 0.0
- Sweet, after-expectoration perception (panelists; 0.5 ppb in 0.2% NaCl): 0.0
- Astringent, after-expectoration perception (panelists; 1.0 ppb in 0.2% NaCl): 0.1
- Bitter, after-expectoration perception (panelists; 1.0 ppb in 0.2% NaCl): 0.0
- Flinty/Mineral, after-expectoration perception (panelists; 1.0 ppb in 0.2% NaCl): 0.5
- Metallic, after-expectoration perception (panelists; 1.0 ppb in 0.2% NaCl): 0.1
- Numbing, after-expectoration perception (panelists; 1.0 ppb in 0.2% NaCl): 0.0
- Salt, after-expectoration perception (mean salt perception after expectoration) (panelists; 1.0 ppb in 0.2% NaCl): 7.0
- Sour, after-expectoration perception (panelists; 1.0 ppb in 0.2% NaCl): 0.0
- Sweet, after-expectoration perception (panelists; 1.0 ppb in 0.2% NaCl): 0.0
- Astringent, after-expectoration perception (panelists; 10.0 ppb in 0.2% NaCl): 0.0
- Bitter, after-expectoration perception (panelists; 10.0 ppb in 0.2% NaCl): 0.0
- Flinty/Mineral, after-expectoration perception (panelists; 10.0 ppb in 0.2% NaCl): 1.0
- Metallic, after-expectoration perception (panelists; 10.0 ppb in 0.2% NaCl): 0.2
- Numbing, after-expectoration perception (panelists; 10.0 ppb in 0.2% NaCl): 0.0
- Salt, after-expectoration perception (mean salt perception after expectoration) (panelists; 10.0 ppb in 0.2% NaCl): 7.3
- Sour, after-expectoration perception (panelists; 10.0 ppb in 0.2% NaCl): 0.0
- Sweet, after-expectoration perception (panelists; 10.0 ppb in 0.2% NaCl): 0.0
- Astringent, after-expectoration perception (panelists; 50.0 ppb in 0.2% NaCl): 0.1
- Bitter, after-expectoration perception (panelists; 50.0 ppb in 0.2% NaCl): 0.0
- Flinty/Mineral, after-expectoration perception (panelists; 50.0 ppb in 0.2% NaCl): 0.6
- Metallic, after-expectoration perception (panelists; 50.0 ppb in 0.2% NaCl): 0.1
- Numbing, after-expectoration perception (panelists; 50.0 ppb in 0.2% NaCl): 0.0
- Salt, after-expectoration perception (mean salt perception after expectoration) (panelists; 50.0 ppb in 0.2% NaCl): 8.0
- Sour, after-expectoration perception (panelists; 50.0 ppb in 0.2% NaCl): 0.0
- Sweet, after-expectoration perception (panelists; 50.0 ppb in 0.2% NaCl): 0.0
- Umami like swelling of lips and tongue, after expectoration (panelists): Panelists also experience Umami like swelling of lips and tongue
- Salt perception from in-mouth to after expectoration (panelists): increases after expectoration (from in-mouth) in all samples; also recorded: noticeable increase

Substance: [pGlu]-Val-Val [SE-17]
- Astringent, after-expectoration perception (panelists; 0.1 ppb in 0.2% NaCl): 0.0
- Bitter, after-expectoration perception (panelists; 0.1 ppb in 0.2% NaCl): 0.0
- Flinty/Mineral, after-expectoration perception (panelists; 0.1 ppb in 0.2% NaCl): 0.6
- Metallic, after-expectoration perception (panelists; 0.1 ppb in 0.2% NaCl): 0.0
- Numbing, after-expectoration perception (panelists; 0.1 ppb in 0.2% NaCl): 0.0
- Salt, after-expectoration perception (mean salt perception after expectoration) (panelists; 0.1 ppb in 0.2% NaCl): 7.3
- Sour, after-expectoration perception (panelists; 0.1 ppb in 0.2% NaCl): 0.0
- Sweet, after-expectoration perception (panelists; 0.1 ppb in 0.2% NaCl): 0.0
- Level of the aromatics, basic tastes and chemical feeling factors after expectoration with increasing concentration (panelists): do not increase
- Salt perception after expectoration as the concentration increases (panelists): does not increase notably; also recorded: Does not show a notable increase
- Astringent, after-expectoration perception (panelists; 0.5 ppb in 0.2% NaCl): 0.0
- Bitter, after-expectoration perception (panelists; 0.5 ppb in 0.2% NaCl): 0.0
- Flinty/Mineral, after-expectoration perception (panelists; 0.5 ppb in 0.2% NaCl): 0.7
- Metallic, after-expectoration perception (panelists; 0.5 ppb in 0.2% NaCl): 0.2
- Numbing, after-expectoration perception (panelists; 0.5 ppb in 0.2% NaCl): 0.0
- Salt, after-expectoration perception (mean salt perception after expectoration) (panelists; 0.5 ppb in 0.2% NaCl): 8.1
- Sour, after-expectoration perception (panelists; 0.5 ppb in 0.2% NaCl): 0.0
- Sweet, after-expectoration perception (panelists; 0.5 ppb in 0.2% NaCl): 0.0
- Astringent, after-expectoration perception (panelists; 1.0 ppb in 0.2% NaCl): 0.0
- Bitter, after-expectoration perception (panelists; 1.0 ppb in 0.2% NaCl): 0.0
- Flinty/Mineral, after-expectoration perception (panelists; 1.0 ppb in 0.2% NaCl): 0.5
- Metallic, after-expectoration perception (panelists; 1.0 ppb in 0.2% NaCl): 0.0
- Numbing, after-expectoration perception (panelists; 1.0 ppb in 0.2% NaCl): 0.0
- Salt, after-expectoration perception (mean salt perception after expectoration) (panelists; 1.0 ppb in 0.2% NaCl): 7.3
- Sour, after-expectoration perception (panelists; 1.0 ppb in 0.2% NaCl): 0.0
- Sweet, after-expectoration perception (panelists; 1.0 ppb in 0.2% NaCl): 0.0
- Astringent, after-expectoration perception (panelists; 10.0 ppb in 0.2% NaCl): 0.0
- Bitter, after-expectoration perception (panelists; 10.0 ppb in 0.2% NaCl): 0.0
- Flinty/Mineral, after-expectoration perception (panelists; 10.0 ppb in 0.2% NaCl): 0.3
- Metallic, after-expectoration perception (panelists; 10.0 ppb in 0.2% NaCl): 0.0
- Numbing, after-expectoration perception (panelists; 10.0 ppb in 0.2% NaCl): 0.0
- Salt, after-expectoration perception (mean salt perception after expectoration) (panelists; 10.0 ppb in 0.2% NaCl): 7.2
- Sour, after-expectoration perception (panelists; 10.0 ppb in 0.2% NaCl): 0.0
- Sweet, after-expectoration perception (panelists; 10.0 ppb in 0.2% NaCl): 0.0
- Astringent, after-expectoration perception (panelists; 50.0 ppb in 0.2% NaCl): 0.0
- Bitter, after-expectoration perception (panelists; 50.0 ppb in 0.2% NaCl): 0.0
- Flinty/Mineral, after-expectoration perception (panelists; 50.0 ppb in 0.2% NaCl): 0.4
- Metallic, after-expectoration perception (panelists; 50.0 ppb in 0.2% NaCl): 0.0
- Numbing, after-expectoration perception (panelists; 50.0 ppb in 0.2% NaCl): 0.0
- Salt, after-expectoration perception (mean salt perception after expectoration) (panelists; 50.0 ppb in 0.2% NaCl): 7.7
- Sour, after-expectoration perception (panelists; 50.0 ppb in 0.2% NaCl): 0.0
- Sweet, after-expectoration perception (panelists; 50.0 ppb in 0.2% NaCl): 0.0
- Umami like swelling of lips and tongue, after expectoration (panelists): Panelists also experience Umami like swelling of lips and tongue
- Salt perception from in-mouth to after expectoration (panelists): increases after expectoration (from in-mouth) in all samples; also recorded: noticeable increase
- Saltiness compared to control (panel of trained tasters; Chicken Broth, control 860 mg, test 645 mg Na, 10 ppb each, n=4): Test samples saltier than
- Saltiness/flavor compared to control (panel of trained tasters; Cottage Cheese, control 350 mg, test 262 mg Na, 10 ppb each, n=4): Test samples notably less
- Preference among test samples (panel of trained tasters; Cottage Cheese, test 262 mg Na, compared to SE-13 and SE-13 + UE-30): combination preferred
